System: FPTase
Experiment: PET Imaging in Dogs: blockade of [11C] radiotracer binding
Assay type: in vivo
Conditions: dose of 10 mpk infused over 5 minutes; female beagle dogs; radiotracer [11C] compound of Example 6
Procedure: Female beagle dogs weighing 7.7-14.6 kg (11.0±2.3 kg) are fasted for at least 12 hours allowing water intake ad libitum, and are premedicated with 0.3-0.4 mL Acepromazine injected i.m. on the day of the experiment. A 20 G two inch venous catheter is placed into the right front leg ulnar vein through which anesthesia is introduced by sodium pentobarbital 25-30 mg/kg in 3-4 ml and maintained with additional pentobarbital at an average dose of 3 mg/kg/hr. Another catheter is inserted into the contralateral ulnar vein for radiotracer administration.
Oxygen saturation of circulating blood is measured with a pulse oximeter (Nellcor Inc., Hayward, Calif.) placed on the tongue of the animal. Circulatory volume is maintained by intravenous infusion of isotonic saline. A 22 G cannula is inserted into the anterior tibial or distal femoral artery for continuous pressure monitoring (Spacelabs™, model 90603A). EKG, heart rate, and core temperature are monitored continuously. In particular, EKG is observed for ST segment changes and arrhythmias. […]
For uninhibited distribution of radiotracer, regions of interest (ROIs) are drawn on the reconstructed image includes the kidney cortex and a region of liver which is removed from the gallbladder images. […] Data are expressed as radioactivity per unit time per unit volume (μCi/cc/mCi injected dose). […]

(S)-1-(3-Fluoroethoxy-5-bromophenyl)-4-[1-(4-cyanobenzyl) -5-imidazoylmethyl]-5-[(methanesulfonyl)ethyl]-2-piperazinone [Example 2]
block of PET radiotracer binding (maximum enzyme-specific signal): completely block radiotracer binding
